Experimental data taken from patent publication US11568956B2, “Methods for identifying inhibitors of amyloid protein aggregation” (Treventis Corporation, priority 2008, dated 2023).

These compounds were tested against T1, Aβ 1-40 (Homo sapiens, UniProt P05067) (assay: ThT aggregation assay of Aβ 1-40).
T1 construct: ThT aggregation assays of Aβ 1-40 and alpha synuclein
Assay type: biochemical
Description: The anti-amyloid activity of these compounds was evaluated by ThT aggregation assays of Aβ 1-40 and alpha synuclein, as set forth below. The column “A-Syn” below is a functional ThT aggregation assay of alpha synuclein.

T1 sequence (P05067 672-711 limits assumed): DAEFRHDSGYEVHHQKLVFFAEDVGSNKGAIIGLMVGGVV

`O=C(CNC(=O)c1ccccc1)N/N=C/c1c[nH]nc1-c1ccccc1` and `CC1=NNC(=O)C1CC(=O)N/N=C/c1cccc(OCc2ccccc2)c1` (stereo not drawn) cannot be ordered by IC50: over 20 µM for the first, over 20 µM for the second.

`c1ccc2c(c1)CCCC2NCc1ccncc1` (stereo not drawn) and `COc1ccc(CNCc2ccc(F)cc2)cc1OC` cannot be ordered by IC50: over 100 µM for the first, over 100 µM for the second.

`COc1ccc2ccccc2c1/C=N/c1ccc(S(N)(=O)=O)cc1` and `COc1ccc(NS(=O)(=O)c2ccc(NS(=O)(=O)c3cccs3)cc2)c(OC)c1` cannot be ordered by IC50: over 20 µM for the first, over 50 µM for the second.

`COc1ccccc1N1CCN(C(=O)CN(c2ccc(F)cc2)S(=O)(=O)c2ccccc2)CC1` and `CC(C)(O)C#Cc1ccc(C(=O)N2CCN(c3ncccn3)CC2)cc1` cannot be ordered by IC50: over 20 µM for the first, over 20 µM for the second.

`COc1ccc(NS(=O)(=O)c2ccc(NS(=O)(=O)c3ccc(Br)s3)cc2)c(OC)c1` and `COc1ccc2cc(C(C)N)ccc2c1` (stereo not drawn) cannot be ordered by IC50: over 50 µM for the first, over 100 µM for the second.

With `CCOC(=O)c1c(NC(=O)c2cccc([N+](=O)[O-])c2C)sc2c1CCC2` the IC50 was over 20 µM.

In the case of `O=[N+]([O-])c1ccc(N2CCCCC2)cc1Nc1ccccc1`, the “Aβ - ThT (IC50/μM)” value is reported as “INACTIVE”.
